Test results as given in ChEMBL document CHEMBL1201862, “PubChem BioAssay data set” (2004).
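Step 1: Grow cells in 96-well plates. Step 2: Expose to compound for 48 hours at 5 concentrations. Step 3: Interpolate endpoints linearly; if unreached, use highest concentration. The concentration for 50% growth inhibition is given as GI50.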 Active and inactive are the calls of the source. No stated cut-off is given here; in the data, active = GI50 up to about 1.1 µM and inactive = higher.

Tests used:
Test in all cases: DTP human tumour cell line panel, 48 h
786-0 = tested on: 786-0
ACHN = tested on: ACHN
BT-549 = tested on: BT-549
DU-145 = tested on: DU-145
HOP-92 = tested on: HOP-92
HT-29 = tested on: HT-29
KM12 = tested on: KM12
M14 = tested on: M14
MDA-N = tested on: MDA-N
NCI-H226 = tested on: NCI-H226
NCI-H460 = tested on: NCI-H460
NCI-H522 = tested on: NCI-H522
PC-3 = tested on: PC-3
RPMI-8226 = tested on: RPMI-8226
SF-295 = tested on: SF-295
SK-MEL-2 = tested on: SK-MEL-2
TK-10 = tested on: TK-10
UACC-62 = tested on: UACC-62
EKVX = tested on: EKVX
K562 = tested on: K562

Measured: GI50

CC1OC2OC3C(OCC(O)C3O)OC(=O)[C@]34CCC(C)(C)CC3C3=CCC5[C@@]6(C)C[C@H](O)[C@H](OC7OC(CO)C(O)C(O)C7OC7OCC(OC(=O)CC(C)(O)CC(=O)OC1C(OC1OC(CO)C(O)C(O)C1O)C2O)C(O)C7O)[C@@](C)(CO)C6CC[C@@]5(C)[C@]3(C)CC4 (stereo partly drawn)
inactive: 786-0 4.83 µM | ACHN 8.3 µM | BT-549 9.27 µM | DU-145 8.09 µM | HOP-92 10.3 µM | HT-29 7.78 µM | KM12 8.53 µM | M14 3.41 µM | MDA-N 2.44 µM | NCI-H226 17.2 µM | NCI-H460 12 µM | NCI-H522 11.6 µM | PC-3 7.91 µM | RPMI-8226 10.6 µM | SF-295 4.06 µM | SK-MEL-2 4.18 µM | TK-10 10.8 µM | UACC-62 9.73 µM

CCOC(=O)C1C(c2ccc(OC)cc2)c2c(nn(-c3ccccc3)c2O)CC1(O)OCC (stereo not drawn)
inactive: 786-0 63.4 µM | ACHN 25.4 µM | BT-549 > 100 µM | DU-145 44.6 µM | EKVX 98.9 µM | HOP-92 > 100 µM | HT-29 27.4 µM | KM12 3.4 µM | M14 19.7 µM | MDA-N 8.63 µM | NCI-H460 6.75 µM | NCI-H522 50.4 µM | PC-3 9.31 µM | RPMI-8226 2.58 µM | SF-295 1.92 µM | SK-MEL-2 > 100 µM | TK-10 > 100 µM | UACC-62 7.67 µM

O=c1[nH]c(Cc2ccccc2)nc2c1sc1nc3ccccc3n12
inactive: 786-0 > 100 µM | ACHN > 100 µM | BT-549 > 100 µM | DU-145 > 100 µM | EKVX > 100 µM | HOP-92 > 100 µM | HT-29 > 100 µM | KM12 > 100 µM | M14 > 100 µM | MDA-N > 100 µM | NCI-H226 > 100 µM | NCI-H460 > 100 µM | NCI-H522 > 100 µM | PC-3 > 100 µM | RPMI-8226 > 100 µM | SF-295 > 100 µM | SK-MEL-2 > 100 µM | TK-10 > 100 µM | UACC-62 > 100 µM

Clc1ccccc1/C=C/c1nsc(/C=C/c2ccccc2Cl)n1
inactive: 786-0 19 µM | ACHN 50.4 µM | BT-549 92 µM | DU-145 > 100 µM | EKVX 61 µM | HOP-92 > 100 µM | HT-29 35.2 µM | K562 21.8 µM | KM12 88.9 µM | M14 70.6 µM | MDA-N 35 µM | NCI-H226 > 100 µM | NCI-H460 21.4 µM | NCI-H522 33.1 µM | PC-3 30.1 µM | RPMI-8226 31.3 µM | SF-295 54 µM | SK-MEL-2 > 100 µM | TK-10 30.8 µM

Cc1cc(C)n(CN(Cn2nc(C)cc2C)c2ccccc2)n1
inactive: 786-0 21.4 µM | ACHN 18.4 µM | BT-549 21.8 µM | DU-145 30.3 µM | EKVX 24.7 µM | HOP-92 33.5 µM | HT-29 17.6 µM | K562 15.6 µM | KM12 16 µM | M14 16.3 µM | MDA-N 14.5 µM | NCI-H460 35.1 µM | NCI-H522 23.2 µM | PC-3 27.8 µM | RPMI-8226 18.4 µM | SF-295 57.9 µM | SK-MEL-2 19 µM | TK-10 46.1 µM | UACC-62 10.6 µM

COc1ccc(N)c(C(=O)CCNC(C)=O)c1 [KINURENAMINE]
inactive: 786-0 > 100 µM | ACHN > 100 µM | BT-549 > 100 µM | DU-145 > 100 µM | EKVX > 100 µM | HOP-92 > 100 µM | HT-29 > 100 µM | KM12 > 100 µM | M14 > 100 µM | MDA-N > 100 µM | NCI-H226 > 100 µM | NCI-H460 > 100 µM | NCI-H522 > 100 µM | PC-3 > 100 µM | RPMI-8226 > 100 µM | SF-295 > 100 µM | SK-MEL-2 > 100 µM | TK-10 > 100 µM | UACC-62 > 100 µM

CCN(CC)CCCNc1nnc(C)c2[nH]c3ccccc3c12
inactive: 786-0 18.2 µM | ACHN 18 µM | BT-549 21.6 µM | DU-145 18.9 µM | EKVX 18.7 µM | HOP-92 6.9 µM | HT-29 6.49 µM | K562 10.1 µM | KM12 11.4 µM | M14 16 µM | MDA-N 13.7 µM | NCI-H460 8.13 µM | NCI-H522 5.7 µM | PC-3 12.1 µM | RPMI-8226 23.5 µM | SF-295 20.8 µM | SK-MEL-2 15.2 µM | TK-10 20.2 µM | UACC-62 13.7 µM

C=CC[C@]12C[C@@H](C(=O)OC)N(C(=O)OC)[C@H]1N(S(=O)(=O)c1ccccc1)c1ccccc12
inactive: 786-0 > 100 µM | ACHN 95.1 µM | BT-549 > 100 µM | DU-145 33.5 µM | EKVX 31.2 µM | HOP-92 42.6 µM | HT-29 > 100 µM | K562 41.1 µM | KM12 85.5 µM | MDA-N 41.8 µM | NCI-H226 > 100 µM | NCI-H460 73.8 µM | NCI-H522 42.3 µM | PC-3 34.6 µM | RPMI-8226 44.3 µM | SK-MEL-2 42.3 µM | TK-10 > 100 µM
